PMC7559897, “Designed Antimicrobial Peptides Against Trauma-Related Cutaneous Invasive Fungal Wound Infections” (Journal of Fungi, 2020)
In brackets after ≈: the same amount, converted by molar mass. Square brackets hold non-standard residues; d marks the D form. Peptide text beside a SMILES is read from it. Orn = NCCC[C@H](N)C(=O)O

What was measured:
[1] = system: MRSA 6313; type: cell-based, Staphylococcus aureus; conditions: 6313, 24 h
Procedure: (§1) Assays were performed by Trideum Biosciences (Frederick, MD, USA). Isolates were thawed from −80 °C storage and sub-cultured on trypticase soy agar plates at 37 °C prior to experimentation. A single colony was aseptically picked from the agar plate and released in 30 mL trypticase soy broth and incubated overnight at 37 °C incubator. Following which the bacterial culture was diluted to approximately 10^6 colony forming units (CFU)/mL using 2X cation adjusted Mueller–Hinton broth and added to the dAMP solutions (0, 2, 4, 8, 16, 32, 64, and 128 μg/mL) which had been formulated in water at 256 μg/mL and then serially diluted in media on 96-well pates. For fungal evaluation, potato dextrose broth and potato dextrose agar plates were used. The treated cultures were then incubated for 24 h at 37 °C and pathogen growth was measured by absorbance at 600 nm. Four replicas were included for each dAMP concentration. Each MIC was assigned to the lowest test agent concentration resulting in at least three out of four wells showing no growth based on an optical density (OD) reading of <0.1.

[2] = system: MRSA ATCC 33592; type: cell-based, Staphylococcus aureus; conditions: ATCC 33592, 24 h
Procedure: as §1

[3] = system: MRSA 6381; type: cell-based, Staphylococcus aureus; conditions: 6381, 24 h
Procedure: as §1

[4] = system: S. aureus B-767; type: cell-based, Staphylococcus aureus; conditions: B-767, 24 h
Procedure: as §1

[5] = system: S. aureus 6061; type: cell-based, Staphylococcus aureus; conditions: 6061, 24 h
Procedure: as §1

[6] = system: K. pneumonia 6069; type: cell-based, Klebsiella pneumoniae; conditions: 24 h
Procedure: as §1

[7] = system: K. pneumonia ATCC 10031; type: cell-based, Klebsiella pneumoniae; conditions: ATCC 10031, 24 h
Procedure: as §1

[8] = system: S. aureus 49525 (Xen36 luciferase); type: cell-based, Staphylococcus aureus; conditions: 8 μg/mL, 60 min incubation, bioluminescence, triplicates from two independent experiments
Source text: (§2) Fungal and bacterial strains were obtained from American Type Culture Collection (ATCC, Manassas, VA, USA) or the clinical isolate collection at Trideum Biosciences (Frederick, MD, USA) and are presented in Table 1 and Table 2, respectively. Bioluminescence strains of P. aeruginosa 19660, transfected with the Xen5 luciferase gene, and S. aureus ATCC R 49525TM (Wright), transfected with the Xen36 luciferase gene, were obtained from Perkin Elmer (Waltham, MA, USA).
(§3) Real-time killing of bacterial cells, P. aeruginosa or S. aureus, and mammalian cytotoxicity to assess dAMP off-target toxicity was evaluated using bioluminescent cells. The L929 fibroblast cells (ATCC, Manassas, VA, USA) were made bioluminescent by transfection with a luciferase gene. Cells (1 × 10^4 cells, 100 μL) were plated in 96-well black-walled plates and the candidate dAMPs were 2-fold serially diluted from specified concentrations in growth medium supplemented with 150 μg/mL D-luciferin. Each concentration was performed in triplicate, with the final volume being 200 μL. Imaging was performed at select times after the addition of the dAMP, and compared to concurrently run vehicle-control, using an IVIS Lumina imaging system (Caliper Life Sciences, Inc., Hopkinton, MA, USA). For imaging, the 96-well plate was positioned on the stage (12.5-cm field of view), with an open emission filter, binning of 4, and f-stop 1 and a 1-min exposure time. Monitoring bioluminescence allows assessment of the kinetics of cellular viability as there is a tight correlation between the bioluminescent signal and cell viability. Data analysis was performed using the Living Image software program (version 4.3, Caliper Life Sciences, Inc., Hopkinton, MA, USA).
(§4) Figure 3 RP553, RP556, RP557 rapidly destroy P. aeruginosa and S. aureus. The bioluminescence of viable P. aeruginosa 19,660 and S. aureus 49,525 cells was quantitated in real time with an IVIS Lumina bioimaging system. Data represent the mean ± SE of triplicate replicates from two independent experiments. For some points, the error bars are shorter than the height of the symbols.

[9] = system: A. baumannii 6838; type: cell-based, Acinetobacter baumannii; conditions: 6838, 24 h
Procedure: as §1

[10] = system: A. baumannii ATCC 17978; type: cell-based, Acinetobacter baumannii; conditions: ATCC 17978, 24 h
Procedure: as §1

[11] = system: A. baumannii 6043; type: cell-based, Acinetobacter baumannii; conditions: 6043, 24 h
Procedure: as §1

[12] = system: P. aeruginosa ATCC 27853; type: cell-based, Pseudomonas aeruginosa; conditions: ATCC 27853, 24 h
Procedure: as §1

[13] = system: P. aeruginosa ATCC 19660; type: cell-based, Pseudomonas aeruginosa; conditions: ATCC 19660, 24 h
Procedure: as §1

[14] = system: P. aeruginosa 6186; type: cell-based, Pseudomonas aeruginosa; conditions: 6186, 24 h
Procedure: as §1

[15] = system: P. aeruginosa 19660 (Xen5 luciferase); test: Bioluminescent time-kill assay; type: cell-based, Pseudomonas aeruginosa; conditions: 8 μg/mL; RP553 at 60 min; bioluminescence
Source text: as §2, §3, §4

[16] = system: E. cloacae 6054; type: cell-based; conditions: 6054, 24 h
Procedure: as §1

[17] = system: Mucor circinelloides NRRL 3631; type: cell-based; conditions: NRRL 3631, 24 h
Procedure: as §1

[18] = system: Candida krusei Y-27803; type: cell-based; conditions: Y-27803, 24 h
Procedure: as §1

[19] = system: Candida parapsilosis Y-1763; type: cell-based; conditions: Y-1763, 24 h
Procedure: as §1

[20] = system: Aspergillus fumigatus 9651; type: cell-based; conditions: 9651, 24 h
Procedure: as §1

[21] = system: Candida parapsilosis Y-1761; type: cell-based; conditions: Y-1761, 24 h
Procedure: as §1

[22] = system: S. epidermis ATCC 51625; type: cell-based; conditions: ATCC 51625, 24 h
Procedure: as §1

[23] = system: E. cloacae 6053; type: cell-based; conditions: 6053, 24 h
Procedure: as §1

[24] = system: Aspergillus flavus MYA-1004; type: cell-based; conditions: 24 h
Procedure: as §1

[25] = system: Aspergillus fumigatus 9648; type: cell-based; conditions: 9648, 24 h
Procedure: as §1

[26] = system: Absidia corymbifera NRRL 6251; type: cell-based; conditions: NRRL 6251, 24 h
Procedure: as §1

[27] = system: Candida krusei Y-27825; type: cell-based; conditions: Y-27825, 24 h
Procedure: as §1

[28] = system: Candida albicans Y-326; type: cell-based; conditions: Y-326, 24 h
Procedure: as §1

[29] = system: Candida albicans Y-6359; type: cell-based; conditions: Y-6359, 24 h
Procedure: as §1

[30] = system: Fusarium solani NRRL 28548; type: cell-based; conditions: NRRL 28548, 24 h
Procedure: as §1

[31] = system: Aspergillus flavus MYA-3651; type: cell-based; conditions: 24 h
Procedure: as §1

[32] = system: vulvovaginal candidiasis infection; conditions: rodent vulvovaginal candidiasis, after three days of daily treatment; cited from earlier work
Source text: The dAMPs RP504, RP554 and RP557 were thus tested for their ability to treat a rodent vulvovaginal candidiasis infection. […] A daily dose with a 2% concentration lowered the CFU/sample by more than 4 logs compared to the con ...

Structure (SMILES)	MIC against MRSA 6313 [1]	MIC against MRSA ATCC 33592 [2]	MIC against MRSA 6381 [3]	MIC against S. aureus B-767 [4]	MIC against S. aureus 6061 [5]	MIC against K. pneumonia 6069 [6]	MIC against K. pneumonia ATCC 10031 [7]	MIC against A. baumannii 6838 [9]	MIC against A. baumannii ATCC 17978 [10]	MIC against A. baumannii 6043 [11]	MIC against P. aeruginosa ATCC 27853 [12]	MIC against P. aeruginosa ATCC 19660 [13]	MIC against P. aeruginosa 6186 [14]	MIC against E. cloacae 6054 [16]	MIC against Mucor circinelloides NRRL 3631 [17]	MIC against Candida krusei Y-27803 [18]	MIC against Candida parapsilosis Y-1763 [19]	MIC against Aspergillus fumigatus 9651 [20]	MIC against Candida parapsilosis Y-1761 [21]	MIC against S. epidermis ATCC 51625 [22]	other results
CC[C@H](C)[C@H](NC(=O)[C@H](CCCCN)NC(=O)[C@H](CC(C)C)NC(=O)[C@H](CCCN)NC(=O)[C@H](CC(C)C)NC(=O)[C@H](CCCNC(=N)N)NC(=O)[C@H](C)NC(=O)[C@H](CCCNC(=N)N)NC(=O)[C@@H](NC(=O)[C@H](CCCN)NC(=O)[C@H](Cc1ccccc1)NC(=O)[C@H](CCCNC(=N)N)NC(=O)[C@H](C)NC(=O)[C@H](CCCCN)NC(=O)[C@@H](NC(=O)[C@H](CCCN)NC(=O)[C@@H](N)Cc1ccccc1)[C@@H](C)CC)C(C)C)C(N)=O [RP553] (H-F[Orn]IKARF[Orn]VRARL[Orn]LKI-NH2)	4 µg/mL (≈ 1.93 µM)	4 µg/mL (≈ 1.93 µM)	8 µg/mL (≈ 3.86 µM)	4 µg/mL (≈ 1.93 µM)	8 µg/mL (≈ 3.86 µM)	4 µg/mL (≈ 1.93 µM)	4 µg/mL (≈ 1.93 µM)	8 µg/mL (≈ 3.86 µM)	4 µg/mL (≈ 1.93 µM)	16 µg/mL (≈ 7.72 µM)	4 µg/mL (≈ 1.93 µM)	8 µg/mL (≈ 3.86 µM)	8 µg/mL (≈ 3.86 µM)	2 µg/mL (≈ 0.965 µM)	64 µg/mL (≈ 30.9 µM)	32 µg/mL (≈ 15.4 µM)	32 µg/mL (≈ 15.4 µM)	64 µg/mL (≈ 30.9 µM)	64 µg/mL (≈ 30.9 µM)	2 µg/mL (≈ 0.965 µM)	S. aureus killing [8]: 14%; P. aeruginosa killing (in words) [15]: nearly all; MIC against E. cloacae 6053 [23]: 4 µg/mL (≈ 1.93 µM); MIC against Aspergillus flavus MYA-1004 [24]: 128 µg/mL (≈ 61.8 µM); MIC against Aspergillus fumigatus 9648 [25]: 128 µg/mL (≈ 61.8 µM); MIC against Absidia corymbifera NRRL 6251 [26]: 2 µg/mL (≈ 0.965 µM); MIC against Candida krusei Y-27825 [27]: 32 µg/mL (≈ 15.4 µM); MIC against Candida albicans Y-326 [28]: 64 µg/mL (≈ 30.9 µM); MIC against Candida albicans Y-6359 [29]: 64 µg/mL (≈ 30.9 µM); MIC against Fusarium solani NRRL 28548 [30]: 2 µg/mL (≈ 0.965 µM); MIC against Aspergillus flavus MYA-3651 [31]: 128 µg/mL (≈ 61.8 µM)
CC[C@H](C)[C@H](NC(=O)[C@H](CCCN)NC(=O)[C@H](C)NC(=O)[C@H](CCCN)NC(=O)[C@H](CC(C)C)NC(=O)[C@H](CCCN)NC(=O)[C@@H](NC(=O)[C@H](CCCN)NC(=O)[C@@H](NC(=O)[C@H](CCCN)NC(=O)[C@H](C)NC(=O)[C@H](CCCN)NC(=O)[C@H](CC(C)C)NC(=O)[C@H](CCCN)NC(=O)[C@@H](N)Cc1ccccc1)[C@@H](C)CC)C(C)C)C(=O)N[C@@H](CCCN)C(=O)N[C@@H](CC(C)C)C(N)=O [RP554] (H-F[Orn]L[Orn]A[Orn]I[Orn]V[Orn]L[Orn]A[Orn]I[Orn]L-NH2)	32 µg/mL (≈ 17 µM)	32 µg/mL (≈ 17 µM)	32 µg/mL (≈ 17 µM)	4 µg/mL (≈ 2.12 µM)	32 µg/mL (≈ 17 µM)	16 µg/mL (≈ 8.49 µM)	8 µg/mL (≈ 4.25 µM)	4 µg/mL (≈ 2.12 µM)	4 µg/mL (≈ 2.12 µM)	8 µg/mL (≈ 4.25 µM)	4 µg/mL (≈ 2.12 µM)	8 µg/mL (≈ 4.25 µM)	8 µg/mL (≈ 4.25 µM)	2 µg/mL (≈ 1.06 µM)	32 µg/mL (≈ 17 µM)	16 µg/mL (≈ 8.49 µM)	8 µg/mL (≈ 4.25 µM)	32 µg/mL (≈ 17 µM)	16 µg/mL (≈ 8.49 µM)	2 µg/mL (≈ 1.06 µM)	reduction of CFU/tissue sample [32]: ≥ 2.5 logs; MIC against E. cloacae 6053 [23]: 4 µg/mL (≈ 2.12 µM); MIC against Aspergillus flavus MYA-1004 [24]: 64 µg/mL (≈ 34 µM); MIC against Aspergillus fumigatus 9648 [25]: 64 µg/mL (≈ 34 µM); MIC against Absidia corymbifera NRRL 6251 [26]: 4 µg/mL (≈ 2.12 µM); MIC against Candida krusei Y-27825 [27]: 16 µg/mL (≈ 8.49 µM); MIC against Candida albicans Y-326 [28]: 32 µg/mL (≈ 17 µM); MIC against Candida albicans Y-6359 [29]: 32 µg/mL (≈ 17 µM); MIC against Fusarium solani NRRL 28548 [30]: 2 µg/mL (≈ 1.06 µM); MIC against Aspergillus flavus MYA-3651 [31]: 32 µg/mL (≈ 17 µM)
